Drawing on patent US8183252B2, “Heterocyclic aspartyl protease inhibitors” (Schering Corporation, priority 2007, dated 2012), this text covers Ki for 41 compounds.

SMILES strings stand for the structures.

This assay concerns the target T1, human BACE1 (sproBACE1) (Homo sapiens, UniProt P56817).
T1 construct: sBACE1, corresponding to amino acids 1-454; made in house; host or cells: Sf9 insect cells (baculovirus), secreted into the medium
Description: BACE-1 Peptide Hydrolysis Assay (HTRF). Format: biochemical. The note with it: read-out: BACE-1 Ki. The method in brief:
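Secreted sBACE1-myc/His from baculovirus-infected sf9 cells, purified on Q-sepharose then Ni-NTA. Substrate-initiated reactions ran 3 hr at 30° C., then were stopped with KF buffer (pH 8.0) containing SA-XL665 for HTRF read-out. EC50 was fitted by sigmoidal dose-response to percent change in ratio.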

T1 sequence (P56817 22-454): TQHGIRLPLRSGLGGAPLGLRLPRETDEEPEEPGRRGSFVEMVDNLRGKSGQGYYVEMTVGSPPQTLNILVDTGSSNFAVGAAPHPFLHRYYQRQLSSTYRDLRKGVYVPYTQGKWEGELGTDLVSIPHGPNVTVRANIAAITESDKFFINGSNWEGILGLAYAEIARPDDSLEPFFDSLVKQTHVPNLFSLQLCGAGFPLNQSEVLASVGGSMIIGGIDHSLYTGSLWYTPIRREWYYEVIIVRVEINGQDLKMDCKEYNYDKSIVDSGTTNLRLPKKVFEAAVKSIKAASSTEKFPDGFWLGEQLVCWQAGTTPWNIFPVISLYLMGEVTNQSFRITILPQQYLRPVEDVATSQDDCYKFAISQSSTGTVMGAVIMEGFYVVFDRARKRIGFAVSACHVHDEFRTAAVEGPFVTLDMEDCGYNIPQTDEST

On to `Cc1cncc(-c2cccc(C3(C)NC(=N)N(C)C3=O)c2)c1` (racemic), for which the Ki is under 5 µM.
`CC1(c2cccc(-c3cccnc3)c2)NC(=N)N(Cc2cccc(N3CCCCS3(=O)=O)c2)C1=O` (racemic): the Ki is under 5 µM.
Regarding `CCCN(CCC)C(=O)c1cccc(CN2C(=N)NC(C)(c3cccc(Br)c3)C2=O)c1` (racemic), the Ki is under 5 µM.
As for `CN1C(=N)NC(C)(c2ccc(F)c(-c3cccnc3)c2)C1=O` (racemic), the Ki is under 5 µM.
For the compound `CCN(CCc1cccc(C2(c3ccccc3)NC(=N)N(C)C2=O)c1)C(C)=O` (racemic), the Ki is under 5 µM.
In the case of `CN1C(=N)NC(c2ccccc2)(c2cccc(-c3ccoc3)c2)C1=O` (racemic) [5-[3-(3-FURANYL)PHENYL]-2-IMINO-3-METHYL-5-PHENYL-4-IMIDAZOLIDINONE (RACEMIC), 5-[3-(3-FURANYL)PHENYL]-2-IMINO-3-METHYL-5-PHENYL-4-IMIDAZOLIDINONE], the Ki was under 5 µM.
`COC1C(=O)N(C)C(=N)NC1(C)c1cc(-c2ccc(F)c(C#N)c2)cs1` (single isomer, unassigned): the Ki was under 5 µM.
Consider `CN1C(=N)NC(C)(c2cc(-c3cccc(C#N)c3)cs2)C(n2cccn2)C1=O` (single isomer, unassigned), for which the Ki is under 5 µM.
With `CCCCS(=O)(=O)Nc1ccc(CN2C(=N)NC(c3ccccc3)(c3ccccc3)C2=O)cc1` [1-butanesulfonamide, N-[4-[(2-imino-5-oxo-4,4-diphenyl-1-imidazolidinyl)methyl]phenyl]-], the Ki is under 5 µM.
For the compound `CC(C)S(=O)(=O)Nc1ccc(CN2C(=N)NC(c3ccccc3)(c3ccccc3)C2=O)cc1` [2-propanesulfonamide, N-[4-[(2-imino-5-oxo-4,4-diphenyl-1-imidazolidinyl)methyl]phenyl]-], the Ki is under 5 µM.
As to `CN1C(=N)NC(c2ccccc2)(c2cc(-c3cccc(C#N)c3)cs2)C1=O` (centres unmarked) [3-[5-(2-IMINO-1-METHYL-5-OXO-4-PHENYL-4-IMIDAZOLIDINYL)-3-THIENYL]BENZONITRILE], the Ki is under 5 µM.
On to `N=C1NC(c2cccc(-c3cccc(Cl)c3)c2)(C2CC2)C(=O)N1C1CCC1` (centres unmarked) [4-imidazolidinone, 5-(3′-chloro[1,1′-biphenyl]-3-yl)-3-cyclobutyl-5-cyclopropyl-2-imino-], for which the Ki was under 5 µM.
Consider `N=C1NC(c2cccc(-c3cccc(Cl)c3)c2)(C2CC2)C(=O)N1C1CCCC1` (centres unmarked) [4-imidazolidinone, 5-(3′-chloro[1,1′-biphenyl]-3-yl)-3-cyclopentyl-5-cyclopropyl-2-imino-], for which the Ki was under 5 µM.
As for `CC(C)N1C(=N)NC(c2cccc(-c3cccc(Cl)c3)c2)(C2CC2)C1=O` (centres unmarked) [4-imidazolidinone, 5-(3′-chloro[1,1′-biphenyl]-3-yl)-5-cyclopropyl-2-imino-3-(1-methylethyl)-], the inhibitory constant (Ki) was under 5 µM.
In the case of `CCC(C)N1C(=N)NC(c2cccc(-c3cccc(Cl)c3)c2)(C2CC2)C1=O` (centres unmarked) [4-imidazolidinone, 5-(3′-chloro[1,1′-biphenyl]-3-yl)-5-cyclopropyl-2-imino-3-(1-methylpropyl)-], the Ki is under 5 µM.
To `N=C1NC(c2cccc(-c3cccc(Cl)c3)c2)(C2CC2)C(=O)N1CC(F)(F)F` (centres unmarked) [4-imidazolidinone, 5-(3′-chloro[1,1′-biphenyl]-3-yl)-5-cyclopropyl-2-imino-3-(2,2,2-trifluoroethyl)-] belongs under 5 µM; to `N=C1NC(c2cccc(-c3cccc(Cl)c3)c2)(C2CC2)C(=O)N1C1CCOCC1` (centres unmarked) [4-imidazolidinone, 5-(3′-chloro[1,1′-biphenyl]-3-yl)-5-cyclopropyl-2-imino-3-(tetrahydro-2H-pyran-4-yl)-], under 5 µM.
To `CCC(CO)N1C(=N)NC(c2cccc(-c3cccc(Cl)c3)c2)(C2CC2)C1=O` (centres unmarked) [4-imidazolidinone, 5-(3′-chloro[1,1′-biphenyl]-3-yl)-5-cyclopropyl-3-[1-(hydroxymethyl)propyl]-2-imino-] belongs under 5 µM.
Regarding `N=C1NC(c2cccc(-c3cccc(Cl)c3)c2)(C2CC2)C(=O)N1C(CO)CO` (centres unmarked) [4-imidazolidinone, 5-(3′-chloro[1,1′-biphenyl]-3-yl)-5-cyclopropyl-3-[2-hydroxy-1-(hydroxymethyl)ethyl]-2-imino-], the Ki is under 5 µM.
To `CCN(CC)CCCN1C(=N)NC(c2cccc(-c3cccc(Cl)c3)c2)(C2CC2)C1=O` (centres unmarked) [4-imidazolidinone, 5-(3′-chloro[1,1′-biphenyl]-3-yl)-5-cyclopropyl-3-[3-(diethylamino)propyl]-2-imino-] belongs under 5 µM.
Turning to `CC(C)[C@H](CO)N1C(=N)NC(c2cccc(-c3cccc(Cl)c3)c2)(C2CC2)C1=O` (stereo partly drawn) [4-imidazolidinone, 5-(3′-chloro[1,1′-biphenyl]-3-yl)-5-cyclopropyl-3-[(1R)-1-(hydroxymethyl)-2-methylpropyl]-2-imino-], the Ki is under 5 µM.
To `CN1C(=N)NC(c2cccc(Br)c2)(C2(C)CC2)C1=O` (centres unmarked) [5-(3-BROMOPHENYL)-2-IMINO-3-METHYL-5-(1-METHYLCYCLOPROPYL)-4-IMIDAZOLIDINONE] belongs under 5 µM.
Regarding `CN1C(=N)NC(c2cccc(Br)c2)(C2CCC2)C1=O` (centres unmarked) [5-(3-BROMOPHENYL)-5-CYCLOBUTYL-2-IMINO-3-METHYL-4-IMIDAZOLIDINONE], the Ki is under 5 µM.
For the compound `CN1C(=N)NC(c2cccc(Br)c2)(C2CCCCC2)C1=O` (centres unmarked) [5-(3-BROMOPHENYL)-5-CYCLOHEXYL-2-IMINO-3-METHYL-4-IMIDAZOLIDINONE], the Ki was under 5 µM.
For `CN1C(=N)NC(c2cccc(Br)c2)(C2CCCC2)C1=O` (centres unmarked) [5-(3-BROMOPHENYL)-5-CYCLOPENTYL-2-IMINO-3-METHYL-4-IMIDAZOLIDINONE], the Ki was under 5 µM.
For `CN1C(=N)NC(c2cccc(-n3ccnc3)c2)(C2CC2)C1=O` (centres unmarked) [5-CYCLOPROPYL-5-[3-(1H-IMIDAZOL-1-YL)PHENYL]-2-IMINO-3-METHYL-4-IMIDAZOLIDINONE], the Ki is under 5 µM.
To `CN1C(=N)NC(c2ccccc2)(c2cc(-c3cccc(Cl)c3)cs2)C1=O` (centres unmarked) [5-[4-(3-CHLOROPHENYL)-2-THIENYL]-2-IMINO-3-METHYL-5-PHENYL-4-IMIDAZOLIDINONE] belongs under 5 µM; to `CN1C(=N)NC(c2ccccc2)(c2cc(-c3cccc(F)c3)cs2)C1=O` (centres unmarked) [5-[4-(3-FLUOROPHENYL)-2-THIENYL]-2-IMINO-3-METHYL-5-PHENYL-4-IMIDAZOLIDINONE], under 5 µM; to `N=C1NC(c2ccccc2)(c2ccccc2)C(=O)N1Cc1cccc(NC(=O)c2ccccc2)c1` [BENZAMIDE, N-[3-[(2-IMINO-5-OXO-4,4-DIPHENYL-1-IMIDAZOLIDINYL)METHYL]PHENYL]-], under 5 µM.
With `CCCC(=O)Nc1cccc(CN2C(=N)NC(c3ccccc3)(c3ccccc3)C2=O)c1` [BUTANAMIDE, N-[3-[(2-IMINO-5-OXO-4,4-DIPHENYL-1-IMIDAZOLIDINYL)METHYL]PHENYL]-], the Ki was under 5 µM.
Regarding `COc1ccccc1C(=O)NCc1ccc(Cl)cc1-c1cccc(C2(C)NC(=N)N(C)C2=O)c1` (centres unmarked) [benzamide, N-[[5-chloro-3′-(2-imino-1,4-dimethyl-5-oxo-4-imidazolidinyl)[1,1′-biphenyl]-2-yl]methyl]-2-methoxy-], the Ki is under 5 µM.
In the case of `CN1C(=N)NC(C)(c2cccc(-c3cc(Cl)ccc3CNC(=O)Cc3ccccc3)c2)C1=O` (centres unmarked) [benzeneacetamide, N-[[5-chloro-3′-(2-imino-1,4-dimethyl-5-oxo-4-imidazolidinyl)[1,1′-biphenyl]-2-yl]methyl]-], the Ki is under 5 µM.
For `CN1C(=N)NC(C)(c2cccc(-c3cc(Cl)ccc3CNS(=O)(=O)c3ccccc3)c2)C1=O` (centres unmarked) [benzenesulfonamide, N-[[5-chloro-3′-(2-imino-1,4-dimethyl-5-oxo-4-imidazolidinyl)[1,1′-biphenyl]-2-yl]methyl]-], the Ki was under 5 µM.
As for `CCS(=O)(=O)Nc1ccc(CN2C(=N)NC(c3ccccc3)(c3ccccc3)C2=O)cc1` [ethanesulfonamide, N-[4-[(2-imino-5-oxo-4,4-diphenyl-1-imidazolidinyl)methyl]phenyl]-], the Ki was under 5 µM.
For the compound `CCCCS(=O)(=O)N1CCC(CN2C(=N)NC(c3ccccc3)(c3ccccc3)C2=O)CC1` [piperidine, 1-(butylsulfonyl)-4-[(2-imino-5-oxo-4,4-diphenyl-1-imidazolidinyl)methyl]-], the Ki is under 5 µM.
As for `CCS(=O)(=O)N1CCC(CN2C(=N)NC(c3ccccc3)(c3ccccc3)C2=O)CC1` [piperidine, 1-(ethylsulfonyl)-4-[(2-imino-5-oxo-4,4-diphenyl-1-imidazolidinyl)methyl]-], the Ki was under 5 µM.
To `N=C1NC(c2ccccc2)(c2ccccc2)C(=O)N1CC1CCN(S(=O)(=O)c2ccc(F)c(Cl)c2)CC1` [piperidine, 1-[(3-chloro-4-fluorophenyl)sulfonyl]-4-[(2-imino-5-oxo-4,4-diphenyl-1-imidazolidinyl)methyl]-] belongs under 5 µM; to `N=C1NC(c2ccccc2)(c2ccccc2)C(=O)N1CC1CCN(S(=O)(=O)c2ccc3ccccc3c2)CC1` [piperidine, 4-[(2-imino-5-oxo-4,4-diphenyl-1-imidazolidinyl)methyl]-1-(2-naphthalenylsulfonyl)-], under 5 µM.
`CS(=O)(=O)N1CCC(CN2C(=N)NC(c3ccccc3)(c3ccccc3)C2=O)CC1` [piperidine, 4-[(2-imino-5-oxo-4,4-diphenyl-1-imidazolidinyl)methyl]-1-(methylsulfonyl)-]: the Ki is under 5 µM.
Take `N=C1NC(c2ccccc2)(c2ccccc2)C(=O)N1CC1CCN(S(=O)(=O)c2ccccc2)CC1` [piperidine, 4-[(2-imino-5-oxo-4,4-diphenyl-1-imidazolidinyl)methyl]-1-(phenylsulfonyl)-]: the Ki was under 5 µM.
Regarding `CCCS(=O)(=O)N1CCC(CN2C(=N)NC(c3ccccc3)(c3ccccc3)C2=O)CC1` [piperidine, 4-[(2-imino-5-oxo-4,4-diphenyl-1-imidazolidinyl)methyl]-1-(propylsulfonyl)-], the Ki is under 5 µM.
